IC50 data for five molecules are collected here from ChEMBL document CHEMBL6083197, “Design, synthesis, inhibitory activity, and molecular simulations study for d-glucose-conjugated thioureas containing pyrimidine ring as multitarget inhibitors against α-amylase, α-glucosidase, DDP-4, and PTP1B in Type 2 diabetes mellitus” (RSC Med Chem, 2024).

What is called IC50 is the point on the concentration scale where inhibition reaches its midpoint.

Values after ≈ are worked out from the molar mass of the structure shown.

Assay [1] can be described thus: Inhibition of alpha-glucosidase (unknown origin) using p-nitrophenyl-glucopyranoside as substrate incubated for 10 mins. More on the design: species or system Homo sapiens.
Assay [2] is described as follows: Inhibition of alpha-amylase (unknown origin) using starch as substrate incubated for 10 mins by DNS reagent based spectrometric assay. More on the design: species or system Homo sapiens.
A short description of assay [3]: Inhibition of alpha-amylase (unknown origin) using starch as substrate preincubated for 10 mins followed by substrate addition and measured after 10 mins by DNSA reagent based spectrophotometric assay. More on the design: species or system Homo sapiens.
The nature of assay [4]: Inhibition of alpha-glucosidase (unknown origin) using p-nitrophenyl-alpha-D-glucoside as substrate preincubated for 5 mins followed by substrate addition and measured after 20 mins by microplate reader assay.
The nature of assay [5]: Inhibition of alpha-amylase (unknown origin) using starch as substrate preincubated for 10 mins followed by substrate addition and measured after 10 mins by 3, 5-dinitrosalicylic acid reagent based microplate reader assay.
The target in assay [6] is T1, Dipeptidyl peptidase 4 (Homo sapiens, UniProt P27487). Description: Inhibition of recombinant human DPP-4 using Gly-Pro-AMC as substrate by fluorometric assay.
The target of assay [7] is T1, Dipeptidyl peptidase 4. As to the kind of experiment: Inhibition of DPP-4 (unknown origin).

T1 sequence (P27487 whole entry): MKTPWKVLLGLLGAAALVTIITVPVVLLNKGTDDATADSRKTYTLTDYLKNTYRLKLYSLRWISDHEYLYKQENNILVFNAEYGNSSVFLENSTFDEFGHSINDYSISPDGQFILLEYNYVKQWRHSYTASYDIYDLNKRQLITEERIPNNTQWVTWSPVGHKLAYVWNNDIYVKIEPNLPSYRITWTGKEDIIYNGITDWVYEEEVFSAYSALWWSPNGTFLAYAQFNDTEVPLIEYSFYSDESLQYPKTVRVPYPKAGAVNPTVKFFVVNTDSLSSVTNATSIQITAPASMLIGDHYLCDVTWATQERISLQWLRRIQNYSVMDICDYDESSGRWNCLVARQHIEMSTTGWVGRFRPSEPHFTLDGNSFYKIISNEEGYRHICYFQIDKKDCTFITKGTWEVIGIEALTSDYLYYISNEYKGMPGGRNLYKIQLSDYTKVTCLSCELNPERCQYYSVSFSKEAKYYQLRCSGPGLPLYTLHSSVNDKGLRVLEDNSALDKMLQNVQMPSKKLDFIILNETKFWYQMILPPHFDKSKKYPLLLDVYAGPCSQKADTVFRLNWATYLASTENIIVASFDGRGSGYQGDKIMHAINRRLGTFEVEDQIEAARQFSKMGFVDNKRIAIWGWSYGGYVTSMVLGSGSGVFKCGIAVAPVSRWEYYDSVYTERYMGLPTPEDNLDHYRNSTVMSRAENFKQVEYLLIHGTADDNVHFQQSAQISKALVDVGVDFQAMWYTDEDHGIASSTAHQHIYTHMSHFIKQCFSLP

In the case of `CN(C)/C(N)=N/c1nc(-c2ccccc2)cc(-c2c[nH]c3ccccc23)n1`, the IC50 in assay [1] worked out at 55.98 µg/mL (≈ 157 µM); in assay [2], 49.5 µg/mL (≈ 139 µM).
The molecule `CCOC(=O)C1=C(C)NC(=O)NC1c1ccc(Nc2cccc3c2C(=O)c2ccccc2C3=O)cc1` (configuration not stated) had an IC50 in assay [3] of 24.23 µg/mL (≈ 50.3 µM).
`C[C@H]1O[C@H](O[C@H]2[C@H](O)[C@@H](O)[C@@H](O[C@H]3[C@H](O)[C@@H](O)C(O)O[C@@H]3CO)O[C@@H]2CO)[C@H](O)[C@@H](O)[C@@H]1N[C@H]1C=C(CO)[C@@H](O)[C@H](O)[C@H]1O` (some centres not stated) [ACARBOSE]: the IC50 in assay [4] amounted to 7.2 µM; in assay [5], 9.32 µM.
On to `O=C(SC1=NC(c2ccc(Cl)cc2)=CC(c2ccc([N+](=O)[O-])cc2)N1)c1ccccc1CN1C(=O)c2ccccc2C1=O` (configuration not stated), for which the IC50 at Dipeptidyl peptidase 4 [6] came out at 0.00051 µM.
At Dipeptidyl peptidase 4 [7], `Nc1nc(NC2=NC(c3ccccc3)=CC(c3cccc([N+](=O)[O-])c3)N2)nc(N2CCOCC2)n1` (configuration not stated) gave an IC50 of 0.0029 µM.
